Experiments:
[1] = Physico-chemical properties of decitabine (solubility, stability); format: physicochemical; conditions: room temp
[2] = Pharmacokinetics of 9-nitro-camptothecin (9NC) in IVAP beagle dog model; format: in vivo, beagle dogs; conditions: for Mean AUC0-inf of 9-AC, Portal Vein AUC / Mean AUC0-inf of 9-AC, Systemic AUC: in ng·h/mL
Procedure: Blood samples were taken systemic and from the portal vein through a sampling/delivery vascular port previously implanted, then plasma was separated by centrifugation and kept frozen at −80° C. until analysis.
The samples were analyzed in a Perkin Elmer liquid chromatography-tandem mass spectrometer system with a PE LC-200 Micro pump, a PE200 Autosampler and a PE Sciex API 365 mass spectrometry unit.
Adult male beagle dogs (between the ages of 1 and 5 years and weighed between 9 and 16 kg) were obtained from Summit Ridge Farms, Susquehanna, Pa. The IVAP dogs were prepared by using a protocol similar to the one used for pentostatin experiments described above.
On the morning of the test, each animal is weighed and placed in the sling. An IV catheter is installed in the brachial vein for systemic blood sampling with a multiuse vacutainer needle adapter. This is flushed with heparinized saline (50 units/ml) to maintain potency between sampling. When necessary, a 20 g or 22 g right-angled Huber infusion set would be placed in the PV port and attached to a three-way stopcock for PV blood sampling.
The preparation of the dose depends on the route of study. In case of IV and PV administration, the drug was dissolved in dimethylacetamide (DMA) at 5 mg/ml and 0.5 ml of the DMA concentrate filtered through a […] filter into 4.5 ml of diluent (51% PEG-400 49% 0.001 M H3PO4) prior to administration to the brachial or portal vein. In the case of all other infusions, as well as oral administration, the drug was dissolved in vegetable oil to a concentration of 1 mg/ml and drawn up into dosing syringes. Animals were dosed IV at 0.1 and 0.2 mg/kg and 0.2 mg/kg for all the other routes of administration tested.
In intravascular studies, the dose is administered via a second catheter and the entire volume is delivered within 45 seconds.
In portal vein studies, the dose is also administered via an additional catheter over a 30 min time period.
In the case of oral dosages, the dose is delivered to the back of the mouth with an appropriate size syringe and is followed with 5 ml of tap water to assist swallowing and clearance of the dose from the mouth. Capsules were administered similarly by placing them at the back of the mouth and giving around 5 ml of water to facilitate swallowing.
For all other tests, the dosage is infused into the appropriate intestinal port and flushed with 2-3 ml of sterile saline. The dead space volume of the ports and tubing vary slightly between individuals, but are generally less than 0.5 ml total. […]
Systemic blood samples allow the calculation of AUC0-inf after oral capsule administration only and portal vein AUC for all the routes of administration.

[3] = 9-NC 0.2 mg/kg COLON port, 0.17 hr
[4] = 9-NC 0.2 mg/kg ileum port, 0.17 hr
[5] = 9-NC 0.2 mg/kg jejunal port, 0.17 hr
[6] = portal vein samples, 9-NC via COLON port
[7] = portal vein samples, 9-NC via ILEUM port
[8] = portal vein samples, 9-NC via JEJUNUM port
[9] = systemic samples, 9-NC via COLON port
[10] = systemic samples, 9-NC via ILEUM port
[11] = systemic samples, 9-NC via JEJUNUM port

## Nc1ncn([C@H]2C[C@H](O)[C@@H](CO)O2)c(=O)n1 [Decitabine monohydrate]
[1]
  stability: stable

## CC[C@@]1(O)C(=O)OCc2c1cc1n(c2=O)Cc2cc3c(N)cccc3nc2-1 [9-AC, 9-amino-20(S)-camptothecin]
[2]; [3]
  Mean plasma concentration, Portal Vein: 0.50 ± 0.03 ng/mL
  Mean plasma concentration, Systemic: 0.42 ng/mL
[2]; [4]
  Mean plasma concentration, Portal Vein: 0.12 ng/mL
  Mean plasma concentration, Systemic: BQL
[2]; [5]
  Mean plasma concentration, Portal Vein: 0.10 ng/mL
  Mean plasma concentration, Systemic: BQL
[2]; 9-NC Intracolon
  Mean AUC0-inf of 9-AC, Portal Vein AUC: 20.81 ± 9.57
  Mean AUC0-inf of 9-AC, Systemic AUC: 36.91 ± 22.62
[2]; 9-NC Intraileum
  Mean AUC0-inf of 9-AC, Systemic AUC: 21.23 ± 14.94
[2]; 9-NC Intrajejunal
  Mean AUC0-inf of 9-AC, Portal Vein AUC: 50.26 ± 6.65
  Mean AUC0-inf of 9-AC, Systemic AUC: 24.41 ± 7.77
[2]; 9-NC Intravenous (0.1 mg/kg)
  Mean AUC0-inf of 9-AC, Portal Vein AUC: 10.76 ± 3.02
  Mean AUC0-inf of 9-AC, Systemic AUC: 12.14 ± 5.68
[2]; 9-NC Intravenous (0.2 mg/kg)
  Mean AUC0-inf of 9-AC, Portal Vein AUC: 25.02 ± 9.87
  Mean AUC0-inf of 9-AC, Systemic AUC: 21.04 ± 2.36
[2]; 9-NC Oral - capsule
  Mean AUC0-inf of 9-AC, Portal Vein AUC: 66.15 ± 34.53
  Mean AUC0-inf of 9-AC, Systemic AUC: 44.74 ± 24.72
[2]; 9-NC Oral - suspension
  Mean AUC0-inf of 9-AC, Portal Vein AUC: 34.43 ± 9.52
  Mean AUC0-inf of 9-AC, Systemic AUC: 20.31 ± 6.97
[2]; 9-NC Portal vein
  Mean AUC0-inf of 9-AC, Systemic AUC: 4.73 ± 0.73
[2]; COLON port, 0.5 hr
  Mean plasma concentration, Portal Vein: 0.77 ± 0.42 ng/mL
  Mean plasma concentration, Systemic: 0.30 ± 0.29 ng/mL
[2]; COLON port, 1 hr
  Mean plasma concentration, Portal Vein: 1.20 ± 0.60 ng/mL
  Mean plasma concentration, Systemic: 0.45 ± 0.20 ng/mL
[2]; COLON port, 1.5 hr
  Mean plasma concentration, Portal Vein: 1.19 ± 0.97 ng/mL
  Mean plasma concentration, Systemic: 0.76 ± 0.12 ng/mL
[2]; COLON port, 2 hr
  Mean plasma concentration, Portal Vein: 1.50 ± 0.66 ng/mL
  Mean plasma concentration, Systemic: 0.68 ± 0.11 ng/mL
[2]; COLON port, 3 hr
  Mean plasma concentration, Portal Vein: 0.88 ± 0.19 ng/mL
  Mean plasma concentration, Systemic: 0.83 ± 0.36 ng/mL
[2]; COLON port, 4 hr
  Mean plasma concentration, Portal Vein: 2.06 ± 1.69 ng/mL
  Mean plasma concentration, Systemic: 0.90 ± 0.45 ng/mL
[2]; COLON port, 6 hr
  Mean plasma concentration, Portal Vein: 1.54 ± 1.06 ng/mL
  Mean plasma concentration, Systemic: 0.74 ± 0.06 ng/mL
[2]; COLON port, 8 hr
  Mean plasma concentration, Portal Vein: 0.70 ng/mL
  Mean plasma concentration, Systemic: 1.14 ± 0.38 ng/mL
[2]; COLON port, 10 hr
  Mean plasma concentration, Systemic: 0.77 ng/mL
[2]; COLON port, 12 hr
  Mean plasma concentration, Portal Vein: 0.76 ng/mL
  Mean plasma concentration, Systemic: 1.11 ± 0.78 ng/mL
[2]; COLON port, 24 hr
  Mean plasma concentration, Portal Vein: 0.77 ng/mL
  Mean plasma concentration, Systemic: 0.83 ± 0.00 ng/mL
[2]; after IV 0.1 mg/kg 9-NC
  half-life of metabolite: 3.51 ± 1.87 h
[2]; after IV 0.2 mg/kg 9-NC
  half-life of metabolite: 6.94 ± 2.87 h
[2]; after IV dosing of 9-NC
  time at which the metabolite reached the maximum concentration: around 1 hr
[2]; ileum port, 0.5 hr
  Mean plasma concentration, Portal Vein: 0.26 ng/mL
  Mean plasma concentration, Systemic: 0.11 ng/mL
[2]; ileum port, 1 hr
  Mean plasma concentration, Portal Vein: 0.28 ± 0.06 ng/mL
  Mean plasma concentration, Systemic: 0.20 ng/mL
[2]; ileum port, 1.5 hr
  Mean plasma concentration, Portal Vein: 0.75 ± 0.52 ng/mL
  Mean plasma concentration, Systemic: 0.23 ± 0.10 ng/mL
[2]; ileum port, 2 hr
  Mean plasma concentration, Portal Vein: 0.99 ± 0.60 ng/mL
  Mean plasma concentration, Systemic: 0.52 ± 0.42 ng/mL
[2]; ileum port, 3 hr
  Mean plasma concentration, Portal Vein: 1.80 ± 1.97 ng/mL
  Mean plasma concentration, Systemic: 1.40 ng/mL
[2]; ileum port, 4 hr
  Mean plasma concentration, Portal Vein: 3.06 ± 3.74 ng/mL
  Mean plasma concentration, Systemic: 0.86 ± 0.67 ng/mL
[2]; ileum port, 6 hr
  Mean plasma concentration, Portal Vein: 4.09 ± 4.44 ng/mL
  Mean plasma concentration, Systemic: 1.17 ± 0.75 ng/mL
[2]; ileum port, 8 hr
  Mean plasma concentration, Systemic: 2.04 ± 0.20 ng/mL
[2]; ileum port, 12 hr
  Mean plasma concentration, Systemic: 0.85 ± 0.95 ng/mL
[2]; ileum port, 24 hr
  Mean plasma concentration, Systemic: 0.47 ng/mL
[2]; jejunal port, 0.5 hr
  Mean plasma concentration, Portal Vein: 0.12 ng/mL
  Mean plasma concentration, Systemic: BQL
[2]; jejunal port, 1 hr
  Mean plasma concentration, Portal Vein: 0.16 ± 0.10 ng/mL
  Mean plasma concentration, Systemic: 0.38 ng/mL
[2]; jejunal port, 2 hr
  Mean plasma concentration, Portal Vein: 0.39 ± 0.04 ng/mL
  Mean plasma concentration, Systemic: 0.32 ± 0.11 ng/mL
[2]; jejunal port, 3 hr
  Mean plasma concentration, Portal Vein: 0.97 ± 0.76 ng/mL
  Mean plasma concentration, Systemic: 0.47 ± 0.38 ng/mL
[2]; jejunal port, 4 hr
  Mean plasma concentration, Portal Vein: 2.38 ± 2.20 ng/mL
  Mean plasma concentration, Systemic: 0.89 ± 0.67 ng/mL
[2]; jejunal port, 6 hr
  Mean plasma concentration, Portal Vein: 1.65 ± 1.13 ng/mL
  Mean plasma concentration, Systemic: 1.59 ± 1.71 ng/mL
[2]; jejunal port, 8 hr
  Mean plasma concentration, Portal Vein: 2.70 ± 0.59 ng/mL
  Mean plasma concentration, Systemic: 1.71 ± 1.54 ng/mL
[2]; jejunal port, 10 hr
  Mean plasma concentration, Systemic: 1.81 ± 1.09 ng/mL
[2]; jejunal port, 12 hr
  Mean plasma concentration, Portal Vein: 2.62 ± 0.29 ng/mL
  Mean plasma concentration, Systemic: 1.03 ± 0.05 ng/mL
[2]; jejunal port, 24 hr
  Mean plasma concentration, Portal Vein: 0.66 ng/mL
  Mean plasma concentration, Systemic: 0.45 ± 0.29 ng/mL
[2]; portal vein samples, 0.2 mg/kg 9-NC via COLON port
  AUC0-INF: 20.81 ± 9.57 ng·h/mL
[2]; portal vein samples, 0.2 mg/kg 9-NC via JEJUNUM port
  AUC0-INF: 50.26 ± 6.65 ng·h/mL
[2]; [6]
  AUCLast: 12.69 ± 5.10 ng·h/mL
  CMAX: 2.28 ± 1.59 ng/mL
  MRT: 7.54 ± 0.61 h
  T1/2: 3.98 ± 0.25 h
  TMAX: 4.00 ± 2.00 h
[2]; [7]
  AUCLast: 11.83 ± 12.85 ng·h/mL
  CMAX: 4.10 ± 2.28 ng/mL
  TMAX: 6.00 ± 0.00 h
[2]; [8]
  AUCLast: 28.70 ± 12.16 ng·h/mL
  CMAX: 3.46 ± 1.22 ng/mL
  MRT: 13.97 ± 2.62 h
  T1/2: 6.54 ± 1.30 h
  TMAX: 9.33 ± 4.62 h
[2]; systemic samples, 0.2 mg/kg 9-NC via COLON port
  AUC0-INF: 36.91 ± 22.62 ng·h/mL
[2]; systemic samples, 0.2 mg/kg 9-NC via ILEUM port
  AUC0-INF: 21.23 ± 14.94 ng·h/mL
[2]; systemic samples, 0.2 mg/kg 9-NC via JEJUNUM port
  AUC0-INF: 24.41 ± 7.77 ng·h/mL
[2]; [9]
  AUCLast: 19.34 ± 11.92 ng·h/mL
  CMAX: 1.29 ± 0.63 ng/mL
  MRT: 57.62 ± 42.79 h
  T1/2: 15.16 ± 14.34 h
  TMAX: 9.33 ± 2.31 h
[2]; [10]
  AUCLast: 18.69 ± 11.73 ng·h/mL
  CMAX: 2.04 ± 0.20 ng/mL
  MRT: 10.64 ± 5.14 h
  T1/2: 4.09 ± 4.24 h
  TMAX: 8.00 ± 0.00 h
[2]; [11]
  AUCLast: 18.86 ± 5.73 ng·h/mL
  CMAX: 1.99 ± 1.39 ng/mL
  MRT: 15.64 ± 8.69 h
  T1/2: 7.20 ± 5.98 h
  TMAX: 8.67 ± 2.31 h
